Results taken from US20190145962A1, “PEPTIDE FOR […] OF AMYLOSPHEROIDS (ASPD), AND […] SCREENING METHOD” (TAO HEALTH LIFE PHARMA CO., LTD., priority 2016, published 2019).

Experiments:
[1] = test system: binding of ASPD to neurons (synthetic ASPD, primary cultured rat hippocampal neurons); assay: Evaluation of ASPD-inhibitory peptides: inhibition of binding of ASPD to cultured neurons (immunofluorescence imaging, titer); type: cell-based; settings: for ASPD-binding inhibitory ability (titer) compared with known ASPD neutralizing peptide 01 (HFNW): qualitative comparison with peptide 01, FIG. 3 and FIG. 4; for effect of inhibiting binding of ASPD to neurons: qualitative, evaluation of section 1
Protocol: Evaluation of peptides that inhibits binding of ASPD to neurons was performed by the following method.
Step 1: Adding a liquid mixture containing peptide and ASPD, which have been mixed together and then incubated, to cultured mature neurons.
Step 2: Degenerating (immobilizing) the neurons.
Step 3: Immunostaining the neurons and the ASPD, respectively, to perform imaging.
Step 4: Analyzing the image to quantify the ASPD bound to the neurons.
Step 5: Evaluating the peptides using the amount of the ASPD bound and/or an analytical value obtained therefrom.
Steps 1 to 3 were performed as follows:
A liquid mixture of peptide and synthetic ASPD was incubated at 4° C. for 15 minutes to pretreat the ASPD and this liquid mixture was added to primary cultured rat hippocampal neurons cultured in a 96-well plate.
After incubation at 37° C. for 15 minutes in a CO2 incubator, the wells were washed with PBS. Then, 2% paraformaldehyde (50 μl/well) was added thereto for immobilization performed for 20 minutes at 37° C. and further 4% paraformaldehyde (50 μl/well) was added thereto for immobilization performed for 20 minutes at 37° C. After washing and blocking, a primary antibody solution containing anti-ASPD antibody (mASD3) and anti-MAP2 antibody (trade name: sc-20172, manufactured by SANTACRUZ) was added, which then was left overnight. After washing, a secondary antibody solution containing Alexa Fluoro (trademark) 568 anti-mouse antibody (trade name: A11031, manufactured by life technologies), Alexa Fluoro (trademark) 488 anti-rabbit antibody (trade name: A11034, manufactured by life technologies), and DAPI (trade name: D523, manufactured by Dojindo) was added and then fluorescence microscopic observation was performed.
Subsequently, steps 4 to 5 were performed as follows: From the microscopic observation data, a calibration curve as shown in FIG. 2 was drawn, an approximate curve was created within a range where linearity was maintained, and then ED50 was calculated. Using, as an indicator, “titer” that is defined by the ratio of ED50 of the ASPD treated with peptide to ED50 of the ASPD alone, the ASPD-binding inhibitory ability of peptide was evaluated.
Titer=ED50[ASPD+Peptide]/ED50[ASPD]

Synthetic ASPD = target: T1, Synthetic ASPD (Homo sapiens, UniProt P05067); assay: Surface plasmon resonance (SPR), synthetic ASPD solid-phased on a chip, peptide as analyte; type: binding; settings: class symbols, key not given; the dissociation constant (KD) was determined but is not given
T1 construct: can be produced by slowly rotating a liquid containing Aß
T1 sequence (P05067 672-713 limits assumed): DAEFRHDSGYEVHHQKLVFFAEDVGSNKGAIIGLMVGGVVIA
Protocol: Synthetic ASPD were solid-phased on a chip and each peptide shown in Table 3 below was allowed to flow as an analyte. Then the dissociation constant (KD) was determined by surface plasmon resonance (SPR).

Substance | ASPD-binding inhibitory ability (titer) compared with known ASPD neutralizing peptide 01 (HFNW) [1] | effect of inhibiting binding of ASPD to neurons [1] | Results of SPR (Ability to Bind to ASPD) (Synthetic ASPD)
HANW [Peptide 10] | comparable to that of known ASPD neutralizing peptide 01 (HFNW) | – | –
HFDW [Peptide 18] | – | showed the effect of inhibiting binding of ASPD to neurons | –
HFKW [Peptide 22] | superior | – | –
HFNW [Peptide 01, known ASPD neutralizing peptide, reference compound] | – | showed the effect of inhibiting binding of ASPD to neurons | –
HFRW [Peptide 16] | superior | – | –
HFWW [Peptide 15] | – | showed the effect of inhibiting binding of ASPD to neurons | –
HHNW [Peptide 05] | comparable to that of known ASPD neutralizing peptide 01 (HFNW) | showed the effect of inhibiting binding of ASPD to neurons | –
HNNW [reference compound] | – | could not inhibit the binding of ASPD to neurons | No binding was found.
HPNW [reference compound] | – | could not inhibit the binding of ASPD to neurons | No binding was found.
HTNW [Peptide 09] | comparable to that of known ASPD neutralizing peptide 01 (HFNW) | showed the effect of inhibiting binding of ASPD to neurons | –
HVNW [Peptide 11] | comparable to that of known ASPD neutralizing peptide 01 (HFNW) | – | –
HYNW [Peptide 08] | – | showed the effect of inhibiting binding of ASPD to neurons | –
